# Results taken from patent US11154513B2, “Semifluorinated compounds” (NOVALIQ GMBH, priority 2015, dated 2021).
# Where two headings read alike, the source gives them in different places.
# What was measured:
# [1] = Refractive index of the mixtures; type: physicochemical; details: mixture with the 1-perfluoroalkylalkane; FIG. 2, FIG. 3
# Method: In a particularly preferred embodiment, the refractive index of the liquid solution is in the range of from about 1.30 to about 1.35 at 20° C., as determined by refractometer.
# The refractive index of the mixtures was also determined. For topically applied ophthalmic compositions, the refractive index of the composition should preferably be similar, or adapted to that of the eye and lens, for instance as close to that of physiological tear fluid as possible. If the refractive index of a composition is not similar, when applied to the surface of the eye, a patient may experience blurring or impaired vision. It is observed, that the amount of the compound CF3(CF2)5—CH(CH3)—(CH2)5—CH3 or has an effect on refractive index.
# [2] = Evaporation time of 10 μL droplet on glass surface; type: physicochemical; details: for effect of increased amount of the compound on evaporation time of the mixture: FIG. 1; for Evaporation time: 10 μL droplet, glass surface, room temperature; for Evaporation time / Relative Evaporation Time: F4H5 / CF3—(CF2)3—CH(CH3)—(CH2)2—CH3 mixtures; for Relative Evaporation Time: relative to Sample 1
# Method: The evaporation time of mixtures of the semifluorinated alkane CF3(CF2)3(CH2)4CH3(F4H5) and CF3—(CF2)3—CH(CH3)—(CH2)2—CH3 was evaluated. A droplet of 10 μL volume of each mixture was placed on a glass surface at room temperature. Time until evaporation was recorded by video-monitoring.
# The evaporation time of mixtures of the semifluorinated alkane CF3(CF2)5(CH2)7CH3(F6H8) and CF3(CF2)5—CH(CH3)—(CH2)5—CH3 was evaluated analogously.
# [3] = Differential Scanning Calorimetry of mixtures
# Method: Differential Scanning Calorimetry (DSC 1, Mettler Toledo, Greifensee, Switzerland) is used to characterize structure and phase behavior of mixtures of CF3(CF2)5—CH(CH3)—(CH2)5—CH3 and CF3(CF2)5(CH2)7CH3. DSC was employed to obtain data on transitions by temperature rising scans with heating rate of 1° C./min. Sealed standard aluminum crucibles (40 μl, Mettler Toledo) were used.
# [4] = test system: Rabbit corneas
# Method: Anim., 2008 (36) p 25-32; and N. Schrage et al, Graefes Arch Clin Exp Ophthalmol 2012 (250), 1330-1340).
# Method. Rabbit corneas were obtained and placed in an artificial anterior ocular chamber which was gently filled with serum-free minimal essential medium (Eagle's MEM) containing Earle's salts and HEPES buffer for nutrition. The medium was constantly replenished by a micropump to imitate the physiological condition of the eye. The culture chambers were held at 32° C. under normal air without supplementary CO2 and >95% relative humidity. Five corneas per test substance (n=5) were used except for the positive control with which two corneas (n=2) were tested.
# After 12 h of stabilization in the culture chamber, the corneas were evaluated by microscopy and corneas with intact epithelium and without opacities were selected. Four small abrasions (2.3-4.3 mm^2) were applied to the surface of the selected corneas with a cornea drill. All defects were monitored by fluorescein sodium staining (0.17% aq. solution) and microscopy.
# The test substances were administered one hour after induction of the corneal erosion and were applied six times daily onto the apex of the corneas (30-50 μL every four hours). A soft-tipped cannula, with continuous suction was placed on the lowest part of the corneoscleral region within the culturing chamber to remove any excess fluid. Experiments were terminated after 3 days of application. Biomicroscopic images of the corneas were taken daily to document the corneal healing process using a phase-contrast microscope integrated camera (KY-F1030U, JVC, (Bad Vilbel, Del.) mounted on a Z16 APO Microscope (Wetzlar, Del.)). All defects were monitored by fluorescein sodium stains (0.17% aq. solution) with yellow green fluorescence indicating the areas of epithelial defects. Erosion sizes were determined using a software tool of the microscope (DISKUS). At the end of the 3 days, the experiment was terminated and all corneas were fixed in 3.7% formaldehyde and stained with a hematoxylin-eosin dye for microscopic evaluation. To monitor the metabolic activity of the cornea, glucose and lactate concentrations were photometrically quantified in the outflow medium from the artificial anterior chambers.
# [5] = DSC heating rate 1° C./min, mixture with CF3(CF2)5(CH2)7CH3
compound,measurement,setting,value
"CCCC(C)C(F)(F)C(F)(F)C(F)(F)C(F)(F)F (stereo not shown) [CF3—(CF2)3—CH(CH3)—(CH2)2—CH3, 2-Perfluorobutyl-pentane]",effect of increased content on refractive index of the mixture,[1],increasing refractive index value
same,effect of increased amount of the compound on evaporation time of the mixture,[2],increase the evaporation time
"CCCCCCC(C)C(F)(F)C(F)(F)C(F)(F)C(F)(F)C(F)(F)C(F)(F)F (stereo not shown) [CF3—(CF2)5—CH(CH3)—(CH2)5—CH3, 2-Perfluorohexyl-octane]",effect of increased content on refractive index of the mixture,[1],increasing refractive index value
same,effect on melting enthalpy,[3]; presence in a mixture of F6H8,decreased
same,effect on melting temperature,[3]; presence in a mixture of F6H8,significant reduction
same,effect of increased amount of the compound on evaporation time of the mixture,[2],significantly decreases the evaporation time
"CCCCCC(F)(F)C(F)(F)C(F)(F)C(F)(F)F [Sample 1, CF3(CF2)3(CH2)4CH3]",Evaporation time,[2],304 s
same,Relative Evaporation Time,[2],1.00
"CCCC(C)C(F)(F)C(F)(F)C(F)(F)C(F)(F)F (stereo not shown) [Sample 3, CF3—(CF2)3—CH(CH3)—(CH2)2—CH3]",Evaporation time,[2],322 s
same,Relative Evaporation Time,[2],1.064
CF3(CF2)5(CH2)7CH3 [0 wt % CF3—(CF2)5—CH(CH3)—(CH2)5—CH3],Low temperature transition Endset,[3]; [5],−38.32 °C
same,Low temperature transition Onset,[3]; [5],−45.47 °C
same,Low temperature transition Peak,[3]; [5],−40.37 °C
same,Low temperature transition ΔH,[3]; [5],-0.69 J/g
benzalkonium chloride [0.01% BAC],course of induced epithelial lesions,[4],progressive increase of the induced epithelial lesions
same,"Corneal Erosion Size, Mean",[4]; Day 0,11.57 mm^2
same,"Corneal Erosion Size, Mean","[4]; Day 1, applied six times daily 30-50 μL",5.91 mm^2
same,"Corneal Erosion Size, Mean","[4]; Day 2, applied six times daily 30-50 μL",8.74 mm^2
same,"Corneal Erosion Size, Mean","[4]; Day 3, applied six times daily 30-50 μL",17.46 mm^2
